{"source": "ChEMBL document CHEMBL2440042", "about": "“Anti-proliferative activity of hydnocarpin, a natural lignan, is associated with the suppression of Wnt/β-catenin signaling pathway in colon cancer cells” (Bioorg Med Chem Lett, 2013)", "key": {"SW480 [1]": {"tested_on": "SW480", "experiment": "Inhibition of Wnt/beta-catenin signaling pathway in human SW480 cells assessed as beta-catenin protein expression at 20 uM after 12 hrs by Western blotting analysis relative to vehicle-treated control"}, "SW480 [2]": {"tested_on": "SW480", "experiment": "Inhibition of Wnt/beta-catenin signaling pathway in human SW480 cells assessed as beta-catenin protein expression at 5 uM after 12 hrs by Western blotting analysis relative to vehicle-treated control"}, "HEK293 [3]": {"tested_on": "HEK293", "experiment": "Inhibition of Wnt/beta-catenin signaling pathway in human HEK293 cells at 20 uM after 24 hrs by dual luciferase reporter gene assay relative to vehicle-treated control", "conditions": "HEK293, 24 h"}, "HEK293 [4]": {"tested_on": "HEK293", "experiment": "Inhibition of Wnt/beta-catenin signaling pathway in human HEK293 cells after 24 hrs by dual luciferase reporter gene assay relative to vehicle-treated control", "type": "cell-based"}, "SW480 [5]": {"tested_on": "SW480", "experiment": "Inhibition of Wnt/beta-catenin signaling pathway in human SW480 cells after 24 hrs by FOPflash luciferase reporter gene assay relative to vehicle-treated control", "type": "cell-based"}, "SW480 [6]": {"tested_on": "SW480", "experiment": "Inhibition of Wnt/beta-catenin signaling pathway in human SW480 cells assessed as increase in phosphorylation of beta-catenin at Ser45 after 12 hrs by Western blotting analysis relative to vehicle-treated control", "type": "cell-based"}, "SW480 [7]": {"tested_on": "SW480", "experiment": "Inhibition of Wnt/beta-catenin signaling pathway in human SW480 cells assessed as increase in phosphorylation of beta-catenin at Ser45 after 24 hrs by Western blotting analysis relative to vehicle-treated control", "type": "cell-based"}, "SW480 [8]": {"tested_on": "SW480", "experiment": "Inhibition of Wnt/beta-catenin signaling pathway in human SW480 cells assessed as increase in phosphorylation of beta-catenin at Ser45 at 5 uM after 12 hrs by Western blotting analysis relative to vehicle-treated control"}, "SW480 [9]": {"tested_on": "SW480", "experiment": "Inhibition of Wnt/beta-catenin signaling pathway in human SW480 cells assessed as increase in phosphorylation of beta-catenin at Ser45 at 20 uM after 12 hrs by Western blotting analysis relative to vehicle-treated control"}, "SW480 [10]": {"tested_on": "SW480", "experiment": "Inhibition of Wnt/beta-catenin signaling pathway in human SW480 cells assessed as dvl1 protein expression at 10 uM after 12 hrs by Western blotting analysis relative to vehicle-treated control"}, "SW480 [11]": {"tested_on": "SW480", "experiment": "Inhibition of Wnt/beta-catenin signaling pathway in human SW480 cells assessed as dvl2 protein expression at 5 uM after 12 hrs by Western blotting analysis relative to vehicle-treated control"}, "SW480 [12]": {"tested_on": "SW480", "experiment": "Inhibition of Wnt/beta-catenin signaling pathway in human SW480 cells assessed as dvl2 protein expression at 10 uM after 12 hrs by Western blotting analysis relative to vehicle-treated control"}, "SW480 [13]": {"tested_on": "SW480", "experiment": "Inhibition of Wnt/beta-catenin signaling pathway in human SW480 cells assessed as dvl2 protein expression at 20 uM after 12 hrs by Western blotting analysis relative to vehicle-treated control"}, "SW480 [14]": {"tested_on": "SW480", "experiment": "Inhibition of Wnt/beta-catenin signaling pathway in human SW480 cells assessed as dvl3 protein expression at 10 uM after 12 hrs by Western blotting analysis relative to vehicle-treated control"}, "SW480 [15]": {"tested_on": "SW480", "experiment": "Inhibition of Wnt/beta-catenin signaling pathway in human SW480 cells assessed as dvl3 protein expression at 20 uM after 12 hrs by Western blotting analysis relative to vehicle-treated control"}, "SW480 [16]": {"tested_on": "SW480", "experiment": "Inhibition of Wnt/beta-catenin signaling pathway in human SW480 cells assessed as GSK3-beta protein expression at 5 uM after 12 hrs by Western blotting analysis relative to vehicle-treated control"}, "SW480 [17]": {"tested_on": "SW480", "experiment": "Inhibition of Wnt/beta-catenin signaling pathway in human SW480 cells assessed as CK1-alpha protein expression at 5 uM after 12 hrs by Western blotting analysis relative to vehicle-treated control"}, "SW480 [18]": {"tested_on": "SW480", "experiment": "Inhibition of Wnt/beta-catenin signaling pathway in human SW480 cells assessed as Axin2 protein expression at 10 uM after 24 hrs by Immunoblotting analysis relative to vehicle-treated control"}, "[19]": {"target": "Axin1/beta-catenin (Homo sapiens) (UniProt P35222+O15169)", "experiment": "Increase in axin1-beta-catenin interaction in human SW480 cells at 5 to 10 uM after 24 hrs by immunoprecipitation", "type": "cell-based"}, "SW480 [20]": {"tested_on": "SW480", "experiment": "Inhibition of Wnt/beta-catenin signaling pathway in human SW480 cells assessed as CK1-alpha protein expression at 10 uM after 12 hrs by Western blotting analysis relative to vehicle-treated control"}, "SW480 [21]": {"tested_on": "SW480", "experiment": "Inhibition of Wnt/beta-catenin signaling pathway in human SW480 cells assessed as CK1-alpha protein expression at 20 uM after 12 hrs by Western blotting analysis relative to vehicle-treated control"}, "SW480 [22]": {"tested_on": "SW480", "experiment": "Inhibition of Wnt/beta-catenin signaling pathway in human SW480 cells assessed as Axin2 protein expression at 10 uM after 12 hrs by Western blotting analysis relative to vehicle-treated control"}, "SW480 [23]": {"tested_on": "SW480", "experiment": "Inhibition of Wnt/beta-catenin signaling pathway in human SW480 cells assessed as Axin2 protein expression at 20 uM after 12 hrs by Western blotting analysis relative to vehicle-treated control"}, "SW480 [24]": {"tested_on": "SW480", "experiment": "Inhibition of Wnt/beta-catenin signaling pathway in human SW480 cells assessed as beta-catenin protein expression at 5 uM after 24 hrs by Western blotting analysis relative to vehicle-treated control"}, "SW480 [25]": {"tested_on": "SW480", "experiment": "Inhibition of Wnt/beta-catenin signaling pathway in human SW480 cells assessed as beta-catenin protein expression at 10 uM after 24 hrs by Western blotting analysis relative to vehicle-treated control"}, "SW480 [26]": {"tested_on": "SW480", "experiment": "Inhibition of Wnt/beta-catenin signaling pathway in human SW480 cells assessed as phosphorylated (S45) beta-catenin protein expression at 5 uM after 24 hrs by Western blotting analysis relative to vehicle-treated control"}, "SW480 [27]": {"tested_on": "SW480", "experiment": "Inhibition of Wnt/beta-catenin signaling pathway in human SW480 cells assessed as phosphorylated (S45) beta-catenin protein expression at 20 uM after 24 hrs by Western blotting analysis relative to vehicle-treated control"}, "SW480 [28]": {"tested_on": "SW480", "experiment": "Inhibition of Wnt/beta-catenin signaling pathway in human SW480 cells assessed as dvl3 protein expression at 10 uM after 24 hrs by Western blotting analysis relative to vehicle-treated control"}, "SW480 [29]": {"tested_on": "SW480", "experiment": "Inhibition of Wnt/beta-catenin signaling pathway in human SW480 cells assessed as GSK3-beta protein expression at 10 uM after 24 hrs by Western blotting analysis relative to vehicle-treated control"}, "SW480 [30]": {"tested_on": "SW480", "experiment": "Inhibition of Wnt/beta-catenin signaling pathway in human SW480 cells assessed as CK1-alpha protein expression at 5 uM after 24 hrs by Western blotting analysis relative to vehicle-treated control"}, "SW480 [31]": {"tested_on": "SW480", "experiment": "Inhibition of Wnt/beta-catenin signaling pathway in human SW480 cells assessed as Axin1 protein expression at 10 uM after 24 hrs by Western blotting analysis relative to vehicle-treated control"}, "SW480 [32]": {"tested_on": "SW480", "experiment": "Inhibition of Wnt/beta-catenin signaling pathway in human SW480 cells assessed as Axin2 protein expression at 5 uM after 24 hrs by Western blotting analysis relative to vehicle-treated control"}, "SW480 [33]": {"tested_on": "SW480", "experiment": "Inhibition of Wnt/beta-catenin signaling pathway in human SW480 cells assessed as Axin2 protein expression at 20 uM after 24 hrs by Western blotting analysis relative to vehicle-treated control"}, "SW480 [34]": {"tested_on": "SW480", "experiment": "Inhibition of Wnt/beta-catenin signaling pathway in human SW480 cells assessed as Axin1 protein expression at 5 uM after 24 hrs by Immunoblotting analysis relative to vehicle-treated control"}}, "note": "Calls of active or inactive are those of the source. The calls are words filed in the database; no cut-off is given here."}
{"smiles": "COc1cc([C@H]2Oc3ccc(-c4cc(=O)c5c(O)cc(O)cc5o4)cc3O[C@@H]2CO)ccc1O", "note": "(relative stereo)", "values": [{"measurement": "fold change (FC)", "setting": "SW480 [1]", "value": 0.6}, {"measurement": "fold change (FC)", "setting": "SW480 [2]", "value": 0.8}, {"measurement": "inhibition at 20 µM", "setting": "HEK293 [3]", "value": 61.6, "unit": "%"}, {"measurement": "inhibition", "setting": "HEK293 [4]", "value": "Dose-dependent effect"}, {"measurement": "inhibition", "setting": "SW480 [5]", "value": "inactive"}, {"measurement": "inhibition", "setting": "SW480 [6]", "value": "Dose-dependent effect"}, {"measurement": "inhibition", "setting": "SW480 [7]", "value": "Dose-dependent effect"}, {"measurement": "fold change (FC)", "setting": "SW480 [8]", "value": 3}, {"measurement": "fold change (FC)", "setting": "SW480 [9]", "value": 4.9}, {"measurement": "fold change (FC)", "setting": "SW480 [10]", "value": 1}, {"measurement": "fold change (FC)", "setting": "SW480 [11]", "value": 1.2}, {"measurement": "fold change (FC)", "setting": "SW480 [12]", "value": 1}, {"measurement": "fold change (FC)", "setting": "SW480 [13]", "value": 0.9}, {"measurement": "fold change (FC)", "setting": "SW480 [14]", "value": 1}, {"measurement": "fold change (FC)", "setting": "SW480 [15]", "value": 1.1}, {"measurement": "fold change (FC)", "setting": "SW480 [16]", "value": 0.8}, {"measurement": "fold change (FC)", "setting": "SW480 [17]", "value": 0.9}, {"measurement": "fold change (FC)", "setting": "SW480 [18]", "value": 1.2}, {"measurement": "Activity", "setting": "[19]", "value": "Active"}, {"measurement": "fold change (FC)", "setting": "SW480 [20]", "value": 0.9}, {"measurement": "fold change (FC)", "setting": "SW480 [21]", "value": 1.2}, {"measurement": "fold change (FC)", "setting": "SW480 [22]", "value": 3.4}, {"measurement": "fold change (FC)", "setting": "SW480 [23]", "value": 6.5}, {"measurement": "fold change (FC)", "setting": "SW480 [24]", "value": 0.8}, {"measurement": "fold change (FC)", "setting": "SW480 [25]", "value": 0.8}, {"measurement": "fold change (FC)", "setting": "SW480 [26]", "value": 1.4}, {"measurement": "fold change (FC)", "setting": "SW480 [27]", "value": 2.4}, {"measurement": "fold change (FC)", "setting": "SW480 [28]", "value": 1}, {"measurement": "fold change (FC)", "setting": "SW480 [29]", "value": 1.2}, {"measurement": "fold change (FC)", "setting": "SW480 [30]", "value": 1.1}, {"measurement": "fold change (FC)", "setting": "SW480 [31]", "value": 3.5}, {"measurement": "fold change (FC)", "setting": "SW480 [32]", "value": 1.8}, {"measurement": "fold change (FC)", "setting": "SW480 [33]", "value": 6.7}, {"measurement": "fold change (FC)", "setting": "SW480 [34]", "value": 1.4}]}
